Assay results taken from BigSolDB 2.1.

Settings: 298.15 K

CC(=O)Oc1ccccc1C(=O)O
Settings | solubility (mole fraction)
in 1,4-dioxane | 0.126
in 2-ethylhexanol | 0.0303
in 2-methyl-1-butanol | 0.0344
in 2-methyl-1-pentanol | 0.0321
in 2-pentanol | 0.0435
in 3,7-dimethyl-1-octanol | 0.0304
in 4-methyl-2-pentanol | 0.0393
in MTBE | 0.0401
in THF | 0.19
in dibutyl ether | 0.00709
in diethyl ether | 0.0353
in diisopropyl ether | 0.0122
in ethyl acetate | 0.0458
in isobutanol | 0.0319
in isopentanol | 0.0381
in isopropanol | 0.0523
in methyl acetate | 0.0529
in methyl butyrate | 0.0297
in n-butanol | 0.0462
in n-butyl acetate | 0.0335
in n-decanol | 0.0365
in n-heptanol | 0.0389
in n-hexanol | 0.0397
in n-octanol | 0.0358
in n-pentanol | 0.0397
in n-pentyl acetate | 0.0268
in n-propanol | 0.0498
in propylene carbonate | 0.0313
in sec-butanol | 0.0536
in tert-amyl alcohol | 0.0818
in tert-butanol | 0.0684
